From article PMC5109050, “Structure and Function of Cyanobacterial DHDPS and DHDPR” (Scientific Reports, 2016)

Key:
[1] = biological target: T1, Av-DHDPR (Trichormus variabilis, UniProt Q3MFY8); experiment: microscale thermophoresis, label-free, single-site fit; type: binding
T1 construct: gene dapB; synthetic codon-optimised dapB in pRSET-A, His-tagged, E. coli BL21-DE3 pLysS, IMAC; homotetramer 139 kDa; monomer of 287 residues in crystal
T1 sequence (Q3MFY8 2-278): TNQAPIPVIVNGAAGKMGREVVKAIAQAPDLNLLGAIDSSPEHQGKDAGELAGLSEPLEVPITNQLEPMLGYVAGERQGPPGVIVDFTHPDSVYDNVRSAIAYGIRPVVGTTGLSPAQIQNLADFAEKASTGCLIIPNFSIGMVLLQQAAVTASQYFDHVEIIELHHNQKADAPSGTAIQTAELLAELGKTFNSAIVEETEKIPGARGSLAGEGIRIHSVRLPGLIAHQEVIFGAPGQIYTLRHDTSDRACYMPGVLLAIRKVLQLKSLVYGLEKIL

[2] = biological target: T2, Av-DHDPS (Trichormus variabilis, UniProt Q3M723); experiment: DHDPS-DHDPR coupled assay, dose response, four-parameter logistic; type: biochemical
T2 construct: gene dapA; synthetic codon-optimised dapA in pRSET-A, His-tagged, E. coli BL21-DE3 pLysS, IMAC; homotetramer 147 kDa; monomer of 297 residues in crystal; active-site Lys164
T2 sequence (Q3M723 entry or part of it): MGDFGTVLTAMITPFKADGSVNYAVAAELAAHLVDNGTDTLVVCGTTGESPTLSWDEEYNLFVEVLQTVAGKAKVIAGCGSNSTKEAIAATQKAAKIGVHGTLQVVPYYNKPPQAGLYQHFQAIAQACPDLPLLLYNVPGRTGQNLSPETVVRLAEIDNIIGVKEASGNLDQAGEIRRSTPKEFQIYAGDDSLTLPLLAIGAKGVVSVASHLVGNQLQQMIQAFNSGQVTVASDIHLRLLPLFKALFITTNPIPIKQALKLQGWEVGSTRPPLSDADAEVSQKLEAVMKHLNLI
Excerpt: DHDPS-DHDPR coupled assay, dose response, four-parameter logistic on Av-DHDPS

[3] = biological target: T3, Ec-DHDPS (Escherichia coli, UniProt P0A6L2); experiment: as above; type: biochemical
T3 construct: gene dapA; control enzyme; construct not described here
T3 sequence (P0A6L2 1-292): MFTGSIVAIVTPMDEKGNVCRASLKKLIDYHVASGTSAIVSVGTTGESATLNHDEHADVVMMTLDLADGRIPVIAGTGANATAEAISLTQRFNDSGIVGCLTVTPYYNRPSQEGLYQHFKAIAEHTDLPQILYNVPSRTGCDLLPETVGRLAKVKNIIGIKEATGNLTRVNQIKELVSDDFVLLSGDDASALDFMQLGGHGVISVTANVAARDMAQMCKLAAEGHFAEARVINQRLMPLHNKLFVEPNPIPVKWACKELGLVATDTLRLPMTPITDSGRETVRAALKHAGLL

[4] = biological target: T4, Vv-DHDPS (Vitis vinifera, UniProt D7U7T8); experiment: as above; type: biochemical; conditions: 30 °C; allosteric feedback inhibitor; control enzyme
T4 construct: gene VIT_15s0048g00750; control enzyme; construct not described here
T4 sequence (D7U7T8 40-365 limits assumed): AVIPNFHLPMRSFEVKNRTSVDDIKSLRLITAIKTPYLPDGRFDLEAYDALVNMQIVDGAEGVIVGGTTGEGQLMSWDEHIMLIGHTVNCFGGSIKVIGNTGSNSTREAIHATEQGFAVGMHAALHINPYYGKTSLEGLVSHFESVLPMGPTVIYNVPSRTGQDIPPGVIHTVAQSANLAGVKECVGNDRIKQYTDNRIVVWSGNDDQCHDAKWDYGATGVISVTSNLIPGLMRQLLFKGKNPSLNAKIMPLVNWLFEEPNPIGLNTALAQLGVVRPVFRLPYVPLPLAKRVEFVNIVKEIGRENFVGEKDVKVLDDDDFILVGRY

[5] = biological target: T2, Av-DHDPS; experiment: X-ray crystallography, […] Å; type: binding; conditions: covalent; bound to Lys164 in active site; crystallised with 10 mM pyruvate, pH 6.5
[6] = biological target: dihydrodipicolinate reductase from Anabaena variabilis (Anabaena variabilis) (UniProt N8WZH2); experiment: AUC; sedimentation velocity, 20 °C, 40,000 rpm, absorbance at 230 nm, initial concentrations 0.1-7.0 μM (size-distribution analysis at 4.0 μM); single species, tetramer
[7] = biological target: dihydrodipicolinate synthase from Anabaena variabilis (Anabaena variabilis) (UniProt N8VIX7); experiment: as above

`O=C(O)c1cccc(C(=O)O)n1` [2,6-pyridinedicarboxylate] was tested. Which Kd [1] did it give?
The Kd was 100 ± 8.2 µM.

How did the IC50 [2] turn out when `NCCCC[C@H](N)C(=O)O` [(S)-lysine] was run?
Its IC50 is 68 µM.

What about the IC50 [3] of the same molecule?
The IC50 was 210 µM.

What about the IC50 [4] of the same molecule?
Its IC50 is 30 µM.

How did the “X-ray crystallography, 1.92 Å” value [5] turn out when `CC(=O)C(=O)O` [pyruvate] was run?
Its value is “Shown in purple is the substrate pyruvate bonded to Lys164 in Av-DHDPS”.

Which stoichiometry N [6] does the source give for “dihydrodipicolinate reductase from Anabaena variabilis (from UniProt N8WZH2 1-273) (enzyme)” here?
Its stoichiometry N is 4.

With “dihydrodipicolinate synthase from Anabaena variabilis (from UniProt N8VIX7 1-299) (enzyme)” as the molecule, how does the stoichiometry N [7] read?
Its stoichiometry N is 4.
